Values quoted from earlier work as cited in patent US4925831A, “Aminoalkyl naphthalenediols as host resistance enhancers against viral infection” (priority 1987, dated 1990).
Entries after “also recorded” stand apart in the source; their conditions may differ. Read-outs that look alike come from different tables or passages of the source.

How the values were obtained:
[1] = test system: AIDS or ARC patients; conditions: result in words
[2] = test system: HIV; conditions: result in words
[3] = test system: HIV reverse transcriptase; conditions: result in words
[4] = in vivo
[5] = not given; remark: listed apart in the source

In the case of α-Interferon, the clinical efficacy [1] is listed as “induced tumor regression in some AIDS-related Kaposi's sarcoma cases” and the “effect on HIV growth / infectivity” value [2] is listed as “Checks the growth of HIV in vitro”.

For `NC(=O)c1ncn([C@@H]2O[C@H](CO)[C@@H](O)[C@H]2O)n1` [Ribavirin, 1β-D-ribofuranosyl-1,2,4-triazole-3-carboxamide], the clinical efficacy [1] is listed as “inhibited viral replication and improved immune function in AIDS patients”.

In the case of `CC(=O)Nc1ccc(C(=O)O)cc1.CC(=O)Nc1ccc(C(=O)O)cc1.CC(=O)Nc1ccc(C(=O)O)cc1.CC(O)CN(C)C.CC(O)CN(C)C.CC(O)CN(C)C.O=c1[nH]cnc2c1ncn2[C@@H]1O[C@H](CO)[C@@H](O)[C@H]1O` [Inosine pranobex], the clinical efficacy [1] is given as “improve immune function in ARC patients”.

In the case of `Cc1ccc(C(=O)Nc2ccc(S(=O)(=O)O)c3cc(S(=O)(=O)O)cc(S(=O)(=O)O)c23)cc1NC(=O)c1cccc(NC(=O)Nc2cccc(C(=O)Nc3cc(C(=O)Nc4ccc(S(=O)(=O)O)c5cc(S(=O)(=O)O)cc(S(=O)(=O)O)c45)ccc3C)c2)c1` [Suramin], the clinical efficacy [1] is given as “little or no evidence of clinical improvement or immunologic recovery” and the “inhibition of HIV reverse transcriptase” value [3] is given as “Potent inhibitor of HIV reverse transcriptase”.

In the case of `CC(C)(S)[C@@H](N)C(=O)O` [D-Penicillamine, 3-mercapto-D-valine], the clinical efficacy [1] is listed as “Inhibits HIV reproduction in humans; also recorded: suppressed the virus” and the “adverse / toxic effects, tolerability” value (human, in vivo) is listed as “temporarily depressed T cell levels in 13 AIDS patients”.

In the case of lentinan, the toxic side effects [4] is given as “undesirable toxic side effects, such as granulomatous inflammation”.

In the case of `CC(C)(N1CC1C#N)N1CC1C(N)=O` (stereo not shown) [Azimexon], the clinical efficacy [1] is listed as “improvements in symptoms and immune function in patients with ARC but not AIDS” and the “adverse / toxic effects, tolerability” value (clinical, result in words) is listed as “only toxic effect was mild hemolysis”.

For “ammonium 21-tungsto-9-antimoniate [HPA-23]”, the clinical efficacy [1] is given as “no therapeutic benefit has been documented in AIDS patients” and the “effect on HIV growth / infectivity” value [2] is given as “some tendency to check the growth of HIV”.

For krestin, the toxic side effects [4] is listed as “undesirable toxic side effects, such as granulomatous inflammation”.

For `CO[C@H]1/C=C/O[C@@]2(C)Oc3c(C)c(O)c4c(c3C2=O)C2=NC3(CCN(CC(C)C)CC3)NC2=C(NC(=O)/C(C)=C\C=C\[C@H](C)[C@H](O)[C@@H](C)[C@@H](O)[C@@H](C)[C@H](OC(C)=O)[C@@H]1C)C4=O` [Ansamycin, rifabutin], the clinical efficacy [1] is given as “some efficacy in treating AIDS patients with an opportunistic infection caused by the bacterium Mycobacterium aviumintracellulare”.

For `O=C(O)P(=O)(O)O` [Foscarnet, trisodium phosphonoformate], the “inhibition of HIV reverse transcriptase” value [3] is given as “Inhibits HIV reverse transcriptase activity in vitro at levels pharmacologically acceptable in vivo” and the “adverse / toxic effects, tolerability” value (human, in vivo) is given as “serious side effects”.

For `Cc1cn([C@H]2C[C@H](N=[N+]=[N-])[C@@H](CO)O2)c(=O)[nH]c1=O` [Azidothymidine, 3'-azido-3'-deoxythymidine], the clinical efficacy [1] is listed as “promise in prolonging lives of patients with AIDS or AIDS-related complex (ARC)”, the “half-life in the body” value ([5]; in vivo) is listed as “relatively short half-life in the body” and the oral absorption ([5]; oral) is listed as “Well absorbed orally”. The “adverse / toxic effects, tolerability” value (clinical, result in words) was “some toxicity, with anemia and headaches” and the “adverse / toxic effects, tolerability” value (clinical, result in words, listed as AZT) was “virtually no toxic effects”.
